Like-named read-outs stand apart in the source and are kept apart here.
Experiments:
[1] = Single-dose pharmacokinetic studies in female FVB mice (PO, IV, IP); type: in vivo, mouse; conditions: mouse; for bioavailability / Kp: female, 10 mg/kg; for bioavailability: FVB, mice, IV 1 mg/kg, oral 10 mg/kg, read-out: oral (absolute) bioavailability; for Kp: brain and plasma, FVB mice, single oral dose, read-out: brain:plasma AUClast ratio
Procedure: For in-vivo pharmacokinetic studies, compounds were dissolved in a formulation containing 20% propylene glycol, 5% ethanol, 5% labrosol, and 70% polyethylene glycol 400 (PEG400) and administered by oral gavage to female FVB mice weighing ˜25 g. At specified time points after dosing (0.25, 0.5, 1, 2, 4, 6, and 24 h), 2 animals were euthanized by CO2, and ˜1 mL blood (by cardiac puncture) and brain samples were collected. The heparinized blood samples were centrifuged to obtain plasma, which was stored at −80° C. until analysis. Brain samples were weighed, diluted […] with water, and then homogenized using a Precellys 24 tissue homogenizer. Brain homogenates (20% wt/vol) were stored at −80° C. until analysis. Pharmacokinetic protocols involving animals were all reviewed and approved by the UCSF institutional animal care and use committee (IACUC).
(§1) Plasma and brain homogenate samples were extracted using a protein-precipitation method and analyzed by specific LC/MS/MS methods developed for each compound dosed in vivo. The analytical method accuracy and precision were monitored by analyzing quality control (QC) samples that were prepared and treated using the same methods as calibration standards for the plasma or brain homogenate samples.
The data were used to calculate the area under the concentration-time curve (AUClast) by noncompartmental analysis with sparse sampling performed using Phoenix WinNonlin 6.1 software (Pharsight, Mountain View, Calif.).
Pharmacokinetic protocols employing mice were reviewed and approved by the UCSF Institutional Animal Care and Use Committee (IACUC). Female FVB mice, weighing approximately 25 g, were used for all in vivo pharmacokinetic studies. Mice were housed with free access to food and water, and were maintained on 12-h light/dark cycles for 1 week before dosing studies were initiated.
For the single-dose of 40 mg/kg, compounds were dissolved in a formulation containing 5% propylene glycol, […] α-tocopheryl polyethylene glycol 1000 succinate (TPGS) and 70% polyethylene glycol 400 (PEG400), and administered by oral gavage. Two animals per time point were used. At specified time points after dosing (0.5, 1, 2, 4, 6, and 24 h), animals were euthanized by CO2, and blood for plasma (by cardiac puncture) and brain samples were collected. The heparinized blood samples were centrifuged to obtain plasma. Brain samples were weighed, diluted 10-fold with water, and then homogenized using a Precellys 24 tissue homogenizer. The brain and plasma samples were flash-frozen on dry ice and then stored at −80° C. until analysis. For the single-dose administration at 10 mg/kg, compounds were dissolved in a formulation containing 20% propylene glycol, 5% ethanol, 5% labrosol, and 70% PEG400, and administered by oral gavage. Two animals per time point were used. At specified time points after dosing (0.25, 0.5, 1, 2, 4, 6, and 24 h), animals were euthanized by CO2, and blood for plasma (by cardiac puncture) and brain samples were collected. The heparinized blood samples were centrifuged to obtain plasma. Brain samples were weighed, diluted five-fold with water, and then homogenized using a Precellys 24 tissue homogenizer. The brain and plasma samples were flash-frozen on dry ice and then stored at −80° C. until analysis.
Compounds were administered through tail vein injection. Two animals per time point were used. At specified time points after dosing (5 min, 0.25, 0.5, 1, 2, 4, and 6 h), animals were euthanized by CO2. Blood and brain samples were obtained and processed as described above for the oral dosing at 40 mg/kg.
as §1, with “by” for “and treated using”, “as” for “as calibration standards for”, “samples. […]” for “samples.”

[2] = Tolerability / toxicity on repeated dosing in mice
[3] = Multiple-dose (three-day) pharmacokinetic studies in FVB mice, drug in liquid diet; type: in vivo, mouse; conditions: for concentration at 3 days: FVB, mouse, oral
Procedure: Aminothiazole analog (e.g., 4.5 g of 27) was added to 15 mL of pure PEG400, vortexed and sonicated to ensure dissolution, then stored at −4° C. until needed. This highly concentrated PEG400 solution was subsequently diluted to final dosing concentrations, where the volume added was composed of homogenized solid rodent feed, cocoa (taste masking agent), and water. Wild-type FVB mice weigh ˜25 gm and typically drink 20 mL of liquid diet per day, allowing an estimate of daily drug consumption. A single dosing cohort consisted of three mice in a shared cage and liquid diet was provided at the start of the study in sufficient volume to last for the entire three-day trial (˜200 mL). At the end of the three-day dosing period, animals were euthanized by CO2, followed by collection of plasma (cardiac puncture) and removal of whole brain. Heparinized blood was centrifuged to separate plasma and both plasma and brain samples were stored at −80° C. prior to analysis. Plasma samples were prepared for analysis by precipitating proteins and reconstituting the remaining fraction with HPLC mobile phase. Brain samples were typically prepared by four-fold dilution with water after weighing, then homogenized using bead-beater or Polytron™ resulting in a highly concentrated solution that was further diluted with mobile phase as appropriate in preparation for bioanalytical analysis using LC-MS. Analysis was by LC-MS (Shimadzu dual-HPLC pumps, C18 analytical column, with detection using an Applied Biosystems API-4000 triple quadrupole mass spectrometer).
Ten compounds were selected from among the 34 2-AMTs for three-day multiple-dose PK studies at PO doses ranging from 40-210 mg/kg. Selection was based on diversity in potency, chemical structure, and a range of physicochemical properties. We used a liquid diet to facilitate easy drug administration, as well as serve as the daily source of all water and food. This approach was chosen because the mouse bioassay studies that would be used to assess drug effects on survival would be expected to run for 110 to 400 days, or more; gavage dosing for such a long period is not feasible and more stressful to mice. For the multiple-dose PK studies, 4.5 g of the 2-AMT analogs was added to 15 mL of pure PEG400, vortexed and sonicated to ensure dissolution, then stored at −4° C. until needed. This highly concentrated PEG400 solution was subsequently diluted to final dosing concentrations and added to the rodent liquid diet, cocoa (taste-masking agent), and water.
Wild-type FVB mice weigh ˜25 g and typically drink 20 mL of liquid diet per day, allowing an estimate of daily drug consumption. A single dosing cohort consisted of three mice in a shared cage and liquid diet was provided at the start of the study in sufficient volume (˜200 mL) to last for the entire three-day period. At the end of the dosing period, animals were euthanized by CO2, followed by collection of plasma (cardiac puncture) and removal of whole brain. Samples were processed and stored as described above for the 10 mg/kg single-dose studies.
Plasma and brain homogenate samples were extracted using a protein-precipitation method and analyzed by specific LC/MS/MS methods developed for each compound dosed in vivo. The analytical method accuracy and precision were monitored by analyzing quality control (QC) samples that were prepared by the same methods as the plasma or brain homogenate samples. The brain and plasma concentration data were used to calculate the maximal concentration (Cmax), area under the concentration-time curve (AUClast), and absolute bioavailability (% F) by noncompartmental analysis with sparse sampling performed using Phoenix WinNonlin 6.1 software (Pharsight, Mountain View, Calif.).

[4] = chronic studies in mice, wide range of doses
[5] = brain, 3 days in liquid diet, 40, 80, 130, 210 mg/kg/day, read-out: brain concentration
[6] = plasma, 3 days in liquid diet, 40, 80, 130, 210 mg/kg/day, read-out: plasma concentration

## Cc1cccc(Nc2nc(-c3ccc(-c4ccccc4)cc3)cs2)n1 [IND24, (4-Biphenyl-4-yl-thiazol-2-yl)-(6-methyl-pyridin-2-yl)-amine]
[1]; plasma, oral
  bioavailability: 27 to 40%
[1]; plasma, po
  bioavailability: 40%
[1]
  Kp: 2.6
[1]; plasma, female FVB mice, 1 mg/kg IV
  half-life: 2 h
[2]; [4]
  tolerability: well tolerated

## Cc1ccc(Nc2nc(-c3cc(-c4ccccc4)no3)cs2)nc1 [IND33, (5-Methyl-pyridin-2-yl)-[4-(3-phenyl-isoxazol-5-yl)-thiazol-2-yl]-amine]
[3]; brain, 3 days in liquid diet, 130 mg/kg dose, read-out: brain concentration
  concentration at 3 days: ~30 µM

## COc1ccc(-c2csc(Nc3ccc4ccccc4n3)n2)cc1OC [IND47, [4-(3,4-Dimethoxy-phenyl)-thiazol-2-yl]-quinolin-2-yl-amine]
[3]; [5]
  concentration at 3 days: ≤ 1 µM
[3]; [6]
  concentration at 3 days: ≤ 1 µM

## Cc1ccnc(Nc2nc(-c3ccncc3)cs2)c1 [IND52, (4-Methyl-pyridin-2-yl)-(4-pyridin-4-yl-thiazol-2-yl)-amine]
[3]; 3 days in liquid diet, 40 mg/kg dose
  brain concentration: no measurable brain concentrations

## Cc1ccnc(Nc2nc(-c3ccc(-c4ccccn4)s3)cs2)c1 [IND81, (4-Methyl-pyridin-2-yl)-[4-(5-pyridin-2-yl-thiophen-2-yl)-thiazol-2-yl]-amine]
[1]; plasma, oral
  bioavailability: 27 to 40%
[1]; plasma, po
  bioavailability: 25 to 27%
[1]
  Kp: 5.5
[2]; [4]
  tolerability: well tolerated

## c1ccc2cc(Nc3nc(-c4ccncc4)cs3)ncc2c1 [IND85, Isoquinolin-3-yl-(4-pyridin-4-yl-thiazol-2-yl)-amine]
[3]; [5]
  concentration at 3 days: ≤ 1 µM
[3]; [6]
  concentration at 3 days: ≤ 1 µM

## C(=N\Nc1ccc(-c2cnco2)cc1)/c1ccncc1 [IND54304, reference compound]
[1]; plasma, po
  bioavailability: 25 to 27%
[1]
  Kp: 0.5
[3]; 3 days in liquid diet, 100 mg/kg/day
  brain concentration as multiple of EC50: ~20 ×EC50
[3]; brain, 3 days in liquid diet, 100 mg/kg/day, read-out: brain concentration
  concentration at 3 days: ~10 µM
[2]; 25, 50, 100, 150 mg/kg for 3 days in liquid diet
  tolerability: tolerated
[2]; ≧150 mg/kg/day for 8 days
  animals dying: 2/4

From US20140329863A1 (priority 2011, published 2014)
